The text below walks through data of paper PMC6857671 (Chemical Science, 2019).

The assay deals with HeLa cells. In words: Confocal microscopic analysis of cellular location of DOX and 36. It is filed as cell-based. Particulars: 10 µM, 3 h, 37 °C, fluorescence confocal microscopy.

Take `COc1cccc2c1C(=O)c1c(O)c3c(c(O)c1C2=O)C[C@@](O)(C(=O)CO)C[C@@H]3O[C@H]1C[C@H](N)[C@H](O)[C@H](C)O1` [DOX, Doxorubicin]: the “cellular location of DOX fluorescence, no irradiation” value is on record as “efficiently transported to the nucleus”.
